How the values were obtained:
[1] = Long-term solubility and oil stability of cannabinoids in CBC at room temperature; assay type: physicochemical; conditions: solid cannabinoid in CBC
Experimental: In an example embodiment, the solubility of a number of solid cannabinoid isolates in concentrations of 10-80 percent by mass were evaluated in CBC, a viscous oil at room-temperature. Solubility is assessed at 25 degrees (Celsius), after heating to 35 degrees (Celsius), after heating to 70 degrees (Celsius), and after heating to 100 degrees (Celsius). The solubility of cannabinoids with CBC is then observed at room temperature at various time points after formulation to determine long-term solubility and oil stability.
The samples were then heated at an appropriate temperature for 15 total minutes in a water bath and then if any of the CBD remained solid, the vial would be heated for 15 minutes at the next temperature level. A glass thermometer was used to observe and record the temperature. All eight vials corresponding to the eight concentrations of CBD in CBC became a homogeneous mass upon 6-8 minutes heating at 70 degrees (Celsius).
The samples were then heated at an appropriate temperature for 15 total minutes in a water bath and then if any of the CBG remained solid the vial would be heated for 15 minutes at the next temperature level. A glass thermometer was used to observe and record the temperature. […] The viscosity of the solution containing 50% CBG (Vial 13) and 60% CBG (Vial 14) increased upon standing for 35 to 40 minutes at room temperature.
The samples were then heated at an appropriate temperature for 15 total minutes in a water bath and then if any of the CBDA remained solid the vial would be heated for 15 minutes at the next temperature level. A glass thermometer was used to observe and record the temperature. […] But no solids were evident after 4 minutes at 100 degrees (Celsius). […] Vials 20 through 24, containing […] CBDA respectively in 10 weight percent increments, were homogenous liquids after 7 minutes at 100° C. The samples containing 30% CBDA to 60% CBDA became very viscous but remained liquid after 20 minutes at room temperature.
After day 1, the samples containing 10% to 80% CBD appeared more viscous but remained homogeneous oils. […]

[2] = Solubility of CBG in bisabolol; assay type: physicochemical
Source text: Roughly 10% of the original amount of CBG seemed to remain crystalline in the sample containing 30% CBG. Approximately 20% the original amount of CBG remained crystalline in the sample containing 40% CBG. Approximately 30% of the original amount of CBG remained solid in the sample containing 50% CBG and approximately 40% of the original mass of CBG remained solid in the solution containing 60% CBG.

SMILES	concentration up to which CBC gives a flowable and stable oil [1] [%]	concentration of CBG in a flowable and stable oil made with bisabolol [2]
C=C(C)[C@@H]1CCC(C)=C[C@H]1c1c(O)cc(CCCCC)cc1O [CBD, cannabidiol, reference compound]	≤ 80	
C=C(C)[C@@H]1CCC(C)=C[C@H]1c1c(O)cc(CCCCC)c(C(=O)O)c1O [CBDA, cannabidiolic acid]	≤ 20	
CCCCCc1cc(O)c(C/C=C(\C)CCC=C(C)C)c(O)c1 [CBG, cannabigerol]	≤ 40	greater than 60%
